Laboratory results: patent US20090221559A1 (priority 2005, published 2009)
Where two headings read alike, the source gives them in different places.

Tests used:
[1] = target: T1, HCV NS5B polymerase (His-tagged, C-terminal 21 amino acid deleted NS5B, HC-J4) (Hepatitis C virus genotype 1b, UniProt O92972); experiment: NS5b polymerase assay (biochemical RdRp assay, 3H-GTP incorporation, SPA beads); set-up: species or system HCV genotype 1b
T1 construct: The cDNA encoding NS5B amino acid 1-570 (HC-J4, genotype 1b); His tag (His6, from pET-21b) (C); made in house; host or cells: E. coli BL21 (DE3)
In short: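 3H-GTP incorporation into newly made RNA was captured on SPA beads added in EDTA after 2 h at 25 °C. Compounds in DMSO met preformed enzyme–template complex (200 nM truncated His-NS5B, HC-J4 1b; biotin-oligo(rG13)/poly(rC)) for 15 min at RT, then 600 nM GTP, 5 mM MgCl2, Tris pH 7.5 started polymerization.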

[2] = system: HCV replicon RNA replication in Huh-7 luc/neo (Huh-Luc) cells; experiment: HCV replicon assay (stable replicon cell reporter assay, luciferase read-out); format: cell-based, HCV type 1b
In short: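 Three-day compound exposure used Huh-Luc cells, which harbour an autonomously replicating genotype 1b NS3-NS5B replicon expressing luciferase and neo^R. Luciferase signal served as the replication read-out, and dose-response curves came from several concentrations per compound.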

[3] = NS5B Polymerase Assay IC50, 200 nM enzyme, 3H-GTP incorporation, 2 h at 25° C.
[4] = Hepatitis C virus, Huh-7, 72 h, read-out: Replicon Assay EC50, Huh-Luc cells, three days incubation, luciferase activity
[5] = NS5B Polymerase Assay IC50 (μM)
[6] = Hepatitis C virus, Huh-7, 72 h, read-out: Replicon Assay EC50 (μM), Huh-Luc cells, incubation of three days, luciferase activity

T1 sequence (O92972 2417-3000, looked up, stated change not applied): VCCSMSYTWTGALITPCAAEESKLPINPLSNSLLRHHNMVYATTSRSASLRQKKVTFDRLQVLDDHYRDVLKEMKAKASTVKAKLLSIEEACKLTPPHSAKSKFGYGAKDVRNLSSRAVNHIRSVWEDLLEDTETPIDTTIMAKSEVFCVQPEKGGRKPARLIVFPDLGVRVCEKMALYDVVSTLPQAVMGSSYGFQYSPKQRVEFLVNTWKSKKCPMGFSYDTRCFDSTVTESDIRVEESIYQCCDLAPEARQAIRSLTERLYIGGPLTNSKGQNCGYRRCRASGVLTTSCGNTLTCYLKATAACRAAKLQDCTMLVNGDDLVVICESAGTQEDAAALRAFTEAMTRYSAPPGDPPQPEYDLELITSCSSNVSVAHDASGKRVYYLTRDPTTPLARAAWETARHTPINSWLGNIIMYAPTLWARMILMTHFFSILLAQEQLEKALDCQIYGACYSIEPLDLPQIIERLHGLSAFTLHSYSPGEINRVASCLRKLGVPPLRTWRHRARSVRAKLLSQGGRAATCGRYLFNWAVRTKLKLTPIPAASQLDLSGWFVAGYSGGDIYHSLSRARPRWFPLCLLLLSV

Molecule `CC1(C)CC(=O)C2=C(C1)Nc1ccc(CO)cc1NC2c1ccc(Cl)cc1Cl` (stereo not shown) has a melting point of 168 °C.
`CC(=O)N1c2c(cccc2C(=O)NCCc2ccncc2)NC2=C(C(=O)CC(C)(C)C2)C1c1ccc(Cl)cc1Cl` (stereo not shown) gave a melting point of over 260 °C.
`CC(=O)N1c2ccc(CN)cc2NC2=C(C(=O)CC(C)(C)C2)C1c1ccc(Cl)cc1Cl` (stereo not shown) gave a melting point of over 260 °C.
Work on `CC(=O)N1c2c(CNCCCN(C)C)cccc2NC2=C(C(=O)CC(C)(C)C2)C1c1ccc(Cl)cc1Cl` (stereo not shown) yielded a melting point of 258 °C.
With `CC1(C)CC(=O)C2=C(C1)Nc1ccccc1N(C(=O)CC#N)C2c1ccc(Cl)cc1Cl` (stereo not shown) [compound 151] the IC50 [1, 3] was 1.25 µM, the EC50 [2, 4] was 18.4 µM and the melting point was over 260 °C.
Work on `CC(=O)N1c2c(CO)cccc2NC2=C(C(=O)CC(C)(C)C2)C1c1ccc(Cl)cc1Cl` (stereo not shown) yielded a melting point of 200 °C.
Molecule `CC(=O)N1c2ccc(C(=O)NCCN3CCOCC3)cc2NC2=C(C(=O)CC(C)(C)C2)C1c1ccc(Cl)cc1Cl` (stereo not shown) [compound 321, 10-acetyl-N-(morpholin-4-ylethyl)-11-(2,4-dichlorophenyl)-3,3-dimethyl-1-oxo-2,3,4,5,10,11-hexahydro-1H-dibenzo[b,e][1,4]diazepine-7-carboxamide] has an IC50 [1, 3] of over 133 µM, an EC50 [2, 4] of 72.2 µM and a melting point of over 260 °C.
With `CC1(C)CC(=O)C2=C(C1)Nc1c(N)cccc1NC2c1ccc(Cl)cc1Cl` (stereo not shown) [compound 474] the IC50 [1, 5] was 1.72 µM, the EC50 [2, 6] was 34.1 µM and the melting point was 248 °C.
`CC(=O)N1c2c(cccc2C(=O)NCCCN(C)C)NC2=C(C(=O)CC(C)(C)C2)C1c1ccc(Cl)cc1Cl` (stereo not shown) showed a melting point of 226 °C.
For `CC1(C)CC(=O)C2=C(C1)Nc1cccc(C#N)c1NC2c1ccc(Cl)cc1Cl` (stereo not shown) [compound 470], the IC50 [1, 5] was 23.3 µM, the EC50 [2, 6] was 16.5 µM and the melting point was 225 °C.
Work on `CC(=O)N1c2c(cccc2C(=O)O)NC2=C(C(=O)CC(C)(C)C2)C1c1ccc(Cl)cc1Cl` (stereo not shown) yielded a melting point of over 260 °C.
In the case of `CC1(C)CC(=O)C2=C(C1)Nc1cc(CO)ccc1NC2c1ccc(Cl)cc1Cl` (stereo not shown), the melting point is reported as 160 °C.
`CC1(C)CC(=O)C2=C(C1)Nc1ccccc1N(C(=O)C(F)(F)F)C2c1ccc(Cl)cc1Cl` (stereo not shown) [compound 107] gave an IC50 [1, 3] of over 133 µM, an EC50 [2, 4] of 11.5 µM and a melting point of over 260 °C.
Work on `CC(=O)N1c2ccccc2NC2=C(C(=O)CC(C)(C)C2)C1/C(Cl)=C/c1ccccc1` (stereo not shown) yielded a melting point of 258 °C.
With `CC1(C)CC(=O)C2=C(C1)Nc1ccccc1N(C(=O)c1ccco1)C2c1ccc(Cl)cc1Cl` (stereo not shown) [compound 153] the IC50 [1, 3] was 4.05 µM, the EC50 [2, 4] was 18.6 µM and the melting point was over 260 °C.
`CC(=O)N1c2ccccc2NC2=C(C(=O)CC(C)(C)C2)C1c1ccc(OCc2ccccc2)c(Cl)c1` (stereo not shown) [compound 139, 10-acetyl-11-[4-benzyloxy-3-chlorophenyl]-3,3-dimethyl-2,3,4,5,10,11-hexahydro-1H-dibenzo[b,e][1,4]diazepin-1-one] showed an IC50 [1, 3] of 1.01 µM, an EC50 [2, 4] of 2.9 µM and a melting point of 197 °C.
For `CC1(C)CC(=O)C2=C(C1)Nc1ccccc1N(C(=O)CC(=O)O)C2c1ccc(Cl)cc1Cl` (stereo not shown), the melting point was 200 °C.
In the case of `CC(=O)N1c2ccccc2N(C)C2=C(C(=O)CC(C)(C)C2)C1c1ccc(Cl)cc1Cl` (stereo not shown) [compound 322], the EC50 [2, 4] is reported as 44.1 µM and the melting point is reported as 145 °C.
For `CC(=O)N1c2c(Br)cccc2NC2=C(C(=O)CC(C)(C)C2)C1c1ccc(Cl)cc1Cl` (stereo not shown) [compound 311], the IC50 [1, 3] was 13.3 µM, the EC50 [2, 4] was 4.03 µM and the melting point was over 260 °C.
`CC(=O)N1c2ccccc2N(Cc2ccccc2)C2=C(C(=O)CC(C)(C)C2)C1c1ccc(Cl)cc1Cl` (stereo not shown) [compound 323] gave an IC50 [1, 3] of 53.8 µM, an EC50 [2, 4] of 1.65 µM and a melting point of 235 °C.
For `CNCc1ccc2c(c1)NC1=C(C(=O)CC(C)(C)C1)C(c1ccc(Cl)cc1Cl)N2C(C)=O` (stereo not shown), the melting point was over 260 °C.
With `CC(=O)N1c2ccc(CCCN)cc2NC2=C(C(=O)CC(C)(C)C2)C1c1ccc(Cl)cc1Cl` (stereo not shown) the melting point was 242 °C.
Work on `CCCN(C)Cc1cccc2c1N(C(C)=O)C(c1ccc(Cl)cc1Cl)C1=C(CC(C)(C)CC1=O)N2` (stereo not shown) yielded a melting point of over 260 °C.
Molecule `Cc1cccc2c1NC(c1ccc(Cl)cc1Cl)C1=C(CC(C)(C)CC1=O)N2` (stereo not shown) [compound 469] has an IC50 [1, 5] of 32.3 µM, an EC50 [2, 6] of 8.24 µM and a melting point of 235 °C.
For `CCOC(=O)c1cccc2c1NC(c1ccc(Cl)cc1Cl)C1=C(CC(C)(C)CC1=O)N2` (stereo not shown), the melting point was 208 °C.
`CC1(C)CC(=O)C2=C(C1)Nc1cc(C(=O)O)ccc1NC2c1ccc(Cl)cc1Cl` (stereo not shown) showed a melting point of over 250 °C.
Molecule `COC(=O)c1ccc2c(c1)N(C(C)=O)C(c1ccc(Cl)cc1Cl)C1=C(CC(C)(C)CC1=O)N2` (stereo not shown) has a melting point of over 250 °C.
For `CC(=O)N1c2ccc(CN(C)C)cc2NC2=C(C(=O)CC(C)(C)C2)C1c1ccc(Cl)cc1Cl` (stereo not shown), the melting point was over 260 °C.
For `CC(=O)N1c2c(CNCCc3ccncc3)cccc2NC2=C(C(=O)CC(C)(C)C2)C1c1ccc(Cl)cc1Cl` (stereo not shown), the melting point was 212 °C.
With `CC(=O)N1c2c(CN3CCOCC3)cccc2NC2=C(C(=O)CC(C)(C)C2)C1c1ccc(Cl)cc1Cl` (stereo not shown) the melting point was over 260 °C.
For `CN(C)c1ccc(NC(=O)N2c3ccccc3NC3=C(C(=O)CC(C)(C)C3)C2c2ccc(Cl)cc2Cl)cc1` (stereo not shown) [compound 157], the IC50 [1, 3] was 29.5 µM, the EC50 [2, 4] was 1.95 µM and the melting point was 238 °C.
`COC(=O)c1ccc2c(c1)NC1=C(C(=O)CC(C)(C)C1)C(c1ccc(Cl)cc1Cl)N2C(C)=O` (stereo not shown) showed a melting point of over 250 °C.
With `CC(=O)N1c2c(C#N)cccc2NC2=C(C(=O)CC(C)(C)C2)C1c1ccc(Cl)cc1Cl` (stereo not shown) [compound 313] the IC50 [1, 3] was 6.04 µM, the EC50 [2, 4] was 27.5 µM and the melting point was 248 °C.
In the case of `CC1(C)CC(=O)C2=C(C1)Nc1ccccc1N(C(=O)Cc1ccccc1)C2c1ccc(Cl)cc1Cl` (stereo not shown) [compound 154], the IC50 [1, 3] is reported as 123 µM, the EC50 [2, 4] is reported as 5.46 µM and the melting point is reported as over 260 °C.
Work on `CC(=O)N1c2c(CNCCN3CCOCC3)cccc2NC2=C(C(=O)CC(C)(C)C2)C1c1ccc(Cl)cc1Cl` (stereo not shown) yielded a melting point of 236 °C.
Work on `CC(=O)N1c2ccc(C(=O)O)cc2NC2=C(C(=O)CC(C)(C)C2)C1c1ccc(Cl)cc1Cl` (stereo not shown) yielded a melting point of over 250 °C.
`CC(=O)N1c2cc(C#N)ccc2NC2=C(C(=O)CC(C)(C)C2)C1c1ccc(Cl)cc1Cl` (stereo not shown) [compound 318] gave an IC50 [1, 3] of 67.1 µM and a melting point of over 250 °C.
`CC(=O)N1c2cccc(C)c2NC2=C(C(=O)CC(C)(C)C2)C1c1ccc(Cl)cc1Cl` (stereo not shown) [compound 315] gave an IC50 [1, 3] of 4.78 µM, an EC50 [2, 4] of 14.6 µM and a melting point of over 260 °C.
With `CC1(C)CC(=O)C2=C(C1)Nc1ccccc1N(C(=O)N1CCCCC1)C2c1ccc(Cl)cc1Cl` (stereo not shown) [compound 155] the IC50 [1, 3] was over 133 µM and the melting point was over 260 °C.
Molecule `CC(=O)N1c2ccccc2NC2=C(C(=O)CC(C)(C)C2)C1c1ccc(Cl)cc1Cl` (single isomer, unassigned) [compound 38, 10-Acetyl-11-(2,4-dichlorophenyl)-2,3,4,5,10,11-hexahydro-3,3-dimethyl-1H-dibenzo[b,e][1,4]diazepin-1-one] has an IC50 [1, 3] of 2.84 µM, an EC50 ([2]; read-out: Replicon Assay EC50, Huh-Luc cells, three days incubation, luciferase activity) of 23.8 µM and a melting point of over 250 °C.
Molecule `Cc1cccc2c1NC1=C(C(=O)CC(C)(C)C1)C(c1ccc(Cl)cc1Cl)N2` (stereo not shown) [compound 471] has an IC50 [1, 5] of over 133 µM, an EC50 [2, 6] of 14.7 µM and a melting point of 225 °C.
`CC1(C)CC(=O)C2=C(C1)Nc1cccc(CO)c1NC2c1ccc(Cl)cc1Cl` (stereo not shown) showed a melting point of over 260 °C.
`CC1(C)CC(=O)C2=C(C1)Nc1ccccc1N(C(=O)c1ccccc1)C2c1ccc(Cl)cc1Cl` (stereo not shown) [compound 45] gave an IC50 [1, 3] of 4.83 µM, an EC50 [2, 4] of 6.79 µM and a melting point of over 250 °C.
With `CC(C)NC(=O)N1c2ccccc2NC2=C(C(=O)CC(C)(C)C2)C1c1ccc(Cl)cc1Cl` (stereo not shown) [compound 156] the IC50 [1, 3] was 5.15 µM, the EC50 [2, 4] was 6.69 µM and the melting point was over 260 °C.
`C=CCCC(=O)N1c2ccccc2NC2=C(C(=O)CC(C)(C)C2)C1c1ccc(Cl)cc1Cl` (stereo not shown) showed a melting point of 200 °C.
`CC(=O)N1c2ccccc2NC2=C(C(=O)CC(C)(C)C2)C1c1cccc(Cl)c1` (stereo not shown) [compound 126] showed an IC50 [1, 3] of over 42.7 µM and an EC50 [2, 4] of over 32 µM.
In the case of `CC1(C)CC(=O)C2=C(C1)Nc1ccccc1N(C(=O)c1ccccc1)C2c1ccccc1` (stereo not shown) [compound 92], the IC50 [1, 3] is reported as over 42.7 µM and the EC50 [2, 4] is reported as 17.6 µM.
For `CCOc1ccccc1C1C2=C(CC(C)(C)CC2=O)Nc2ccccc2N1C(C)=O` (stereo not shown) [compound 125], the IC50 [1, 3] was over 42.7 µM and the EC50 [2, 4] was over 32 µM.
Molecule `O=C1C[C@@H](c2ccccc2)CC2=C1[C@H](c1ccc3c(c1)OCO3)Nc1ccc(C(=O)c3ccccc3)cc1N2` [compound 491] has an IC50 [1, 5] of over 42.7 µM and an EC50 [2, 6] of 12.1 µM.
`O=C1CC(c2ccc(Cl)cc2)CC2=C1C(c1cccc([N+](=O)[O-])c1)Nc1ccccc1N2` (stereo not shown) [compound 337] showed an IC50 [1, 5] of over 42.7 µM and an EC50 [2, 6] of 17.5 µM.
`CCC(=O)N1c2ccccc2NC2=C(C(=O)CC(C)(C)C2)C1c1ccc(C(F)(F)F)cc1` (stereo not shown) [compound 55] gave an IC50 [1, 3] of 33.3 µM and an EC50 [2, 4] of over 32 µM.
With `COc1ccc(C2C3=C(CC(C)(C)CC3=O)Nc3ccccc3N2C(C)=O)cc1OCc1ccccc1` (stereo not shown) [compound 48] the IC50 ([1]; 200 nM enzyme, 3H-GTP incorporation, 2 h at 25° C., read-out: NS5B Polymerase Assay IC50) was 15.9 µM and the EC50 ([2]; Huh-Luc cells, three days incubation, luciferase activity, read-out: Replicon Assay EC50) was 16.7 µM.
Molecule `COc1ccccc1C1C2=C(CC(C)(C)CC2=O)Nc2ccccc2N1C(=O)Cc1ccccc1` (stereo not shown) [compound 81] has an IC50 [1, 3] of over 42.7 µM and an EC50 [2, 4] of 6.72 µM.
